Results taken from US11021721B2, “Genetically engineered Pseudomonas strains capable of metabolizing ethylene glycol and its metabolic intermediates” (Alliance for Sustainable Energy, LLC, priority 2017, dated 2021).
“And” between values parts separate entries of the source, which are not always exact repeats. Equal values may be shown once.

Assays:
P. putida KT2440 [1] = test: Competitive inhibition assay, glycolaldehyde and glyoxal full-factorial growth test (Bioscreen C); format: cell-based, Pseudomonas putida KT2440
Procedure: FIG. 13 depicts synergistic inhibitory effect of glycolaldehyde and glyoxal. Growth assays were conducted in 100 well plates in the Bioscreen C MBR analyzer. Individual wells of the plate were filled with 200 μL of M9 medium-containing 20 mM glucose and the respective concentration of glycolaldehyde and glyoxal according to a 3-level full-factorial design (Table 3), growth rates expressed as means±SEM (n=3). Bars labeled with different letters indicate statistical significance of different runs (p<0.05; one-way ANOVA followed by Tukey's post hoc honest significance difference test).
Toxicity tests and competitive inhibition assays were performed using Bioscreen C MBR analyzers (Growth Curves US, Piscataway, N.J.). For toxicity tests, overnight cultures of P. putida KT2440 were grown in M9 medium containing 20 mM glucose starting at an OD600 of 0.05-0.1 at 30° C. with shaking at 225 rpm in baffled shake flasks until the OD600 reached about 1.0-1.5. Cells were subsequently concentrated by centrifugation and inoculated into wells of Bioscreen C microplates at an initial OD600=0.05. Each well contained a total volume of […] M9 medium, 20 mM glucose, and inhibitors at various concentrations. Incubations were performed at 30° C. with maximum shaking. Absorbance readings were taken every 15 min. For competitive inhibition assays, individual wells of the plate were filled with 200 μL of M9 medium containing 20 mM glucose and a respective concentration of glycolaldehyde and glyoxal according to full-factorial test run results of which are presented in Table 3 and depicted in graphical form in FIG. 13. Initial OD600 was set at 0.1 by using an overnight culture of wild type P. putida KT2440. Samples were incubated as described above. Operation of the Bioscreen C MBR and collection of turbidity measurements (OD420-580) were computer automated with EZ Experiment.
The toxicity effects of ethylene glycol, glyoxylate, glycolaldehyde, glyoxal and oxalate on P. putida KT2440 were examined by monitoring growth in the Bioscreen C instrument (a microplate reader which monitors turbidity over time) in the presence of M9 minimal medium containing 20 mM glucose and the inhibitor, see FIG. 20. The average OD of at least 5 wells was plotted in FIG. 9. […] Glyoxal, an oxidation product of glycolaldehyde, is also very inhibitory to P. putida KT2440 growth at a 5 mM concentration where a long lag phase is observed. At 7.5 mM, glyoxal is lethal to the cells. Therefore, glycolaldehyde and glyoxal are intermediate metabolites which result in ethylene glycol toxicity on P. putida KT2440. Glycolaldehyde exerts combinational inhibitory effect with other compounds, such as 5-HMF, furfural, and methylglyoxal. The combinational inhibitory effect of glycolaldehyde and glyoxal was determined by running three level full-factorial growth experiments, see FIG. 13 and Table 3.

P. putida KT2440 [2] = test: Toxicity tests in Bioscreen C: growth in M9 minimal medium with 20 mM glucose and inhibitor; format: cell-based, Pseudomonas putida KT2440; settings: 20 mM glucose
Procedure: Toxicity tests and competitive inhibition assays were performed using Bioscreen C MBR analyzers (Growth Curves US, Piscataway, N.J.). For toxicity tests, overnight cultures of P. putida KT2440 were grown in M9 medium containing 20 mM glucose starting at an OD600 of 0.05-0.1 at 30° C. with shaking at 225 rpm in baffled shake flasks until the OD600 reached about 1.0-1.5. Cells were subsequently concentrated by centrifugation and inoculated into wells of Bioscreen C microplates at an initial OD600=0.05. Each well contained a total volume of 300 M9 medium, 20 mM glucose, and inhibitors at various concentrations. Incubations were performed at 30° C. with maximum shaking. Absorbance readings were taken every 15 min. […] Initial OD600 was set at 0.1 by using an overnight culture of wild type P. putida KT2440. Samples were incubated as described above. Operation of the Bioscreen C MBR and collection of turbidity measurements (OD420-580) were computer automated with EZ Experiment.
Growth curves were obtained from Bioscreen C analyzers (Growth Curves US, Piscataway, N.J.). Overnight cultures of P. putida KT2440 were grown in M9 medium containing 20 mM glucose starting at an OD600 of 0.05-0.1, 30° C., 225 rpm (baffled shake flask) until the OD600 reached ˜1.0-1.5. Cells were concentrated by centrifugation and inoculated into wells of Bioscreen C microplates containing various inhibitors and concentrations in the presence of 20 mM glucose at and additional OD600=0.05 in a total volume of 300 μL. Incubations were performed at 30° C. and absorbance readings were taken every 15 min. Operation of the Bioscreen C and collection of turbidity measurements (OD420-580) were computer automated with EZ Experiment. Data was collected and exported to Microsoft Excel spreadsheets for analysis.

[3] = molecular target: tartronate semialdehyde reductase (GlxR); settings: cited from earlier work
P. putida KT2440 [4] = settings: on glucose, co-feed of formate, similar conditions; cited from earlier work
P. putida KT2440 [5] = test: C-limited chemostat cultivation on acetate with co-feed of ethylene glycol or glyoxylate; format: cell-based, Pseudomonas putida KT2440; settings: for increase of biomass yield on acetate: 30 mM co-feed with 30 mM acetate, compared to control with only acetate; for reducing equivalents generated through co-metabolism: co-feed with acetate, assuming all glyoxylate is metabolized through the glyoxylate shunt
Procedure: FIG. 14 depicts co-feeding of P. putida KT2440 in C-limited chemostat cultivations on mineral medium with 30 mM acetate supplemented with 30 mM ethylene glycol (black), 30 mM glyoxylate (green), or no co-feed (grey). FIG. 14A depicts a comparison of biomass (OD600) at steady state. FIG. 14B depicts extracellular metabolites at steady state. […] FIG. 14C depicts flux analysis of redox equivalent-yielding metabolism of ethylene glycol (upper value) or glyoxylate (lower value) in mM gCDW^−1 h^−1. Cells were grown at a dilution rate of 0.2. Error bars indicate the deviation from the mean (n=2).
To investigate the applicability of ethylene glycol as a co-substrate, P. putida KT2440 was cultured in carbon-limited chemostat cultivations with acetate as carbon source, and either ethylene glycol or glyoxylate as an energy source. Acetate was chosen because it induces the glyoxylate shunt enzymes.
Energy and redox equivalent homeostasis is essential for efficient growth of a bacterial cell.

Compound: O=CC=O [Glyoxal, glyoxal]
- Growth Rate (P. putida KT2440 [1]; in the presence of 2 mM glyoxal): 0.25 h⁻¹ and 0.297 ± 0.001 h⁻¹
- Growth Rate (P. putida KT2440 [1]; run 1: glycolaldehyde 0 mM, glyoxal 1.0 mM): 0.297 h⁻¹
- Growth Rate (P. putida KT2440 [1]; run 2: glycolaldehyde 0 mM, glyoxal 1.5 mM): 0.280 h⁻¹
- Growth Rate (P. putida KT2440 [1]; run 3: glycolaldehyde 0 mM, glyoxal 2.0 mM): 0.246 h⁻¹
- concentration inhibitory to growth with long lag phase (P. putida KT2440 [2]): 5000 µM
- lethal concentration (P. putida KT2440 [2]): 7.5 mM

Compound: O=C(O)CO [glycolate]
- Ki ([3]; inhibition of GlxR): 3000 µM

Compound: O=CO [formate]
- reducing equivalents at maximal achievable biomass yield (P. putida KT2440 [4]): 7.6±0.9 mmol (g CDW)^−1 h^−1

Compound: OCCO [Ethylene glycol, ethylene glycol]
- increase of biomass yield on acetate (P. putida KT2440 [5]): 29.6±1.1%
- reducing equivalents generated through co-metabolism (P. putida KT2440 [5]): 27.3±2.6 mmol (g CDW)^−1 h^−1

Compound: O=CCO [Glycolaldehyde, glycolaldehyde]
- Growth Rate (P. putida KT2440 [1]; in the presence of 2 mM glycolaldehyde): 0.22 h⁻¹ and 0.291 ± 0.001 h⁻¹
- Growth Rate (P. putida KT2440 [1]; run 13: glycolaldehyde 1.0 mM, glyoxal 0 mM): 0.281 h⁻¹
- Growth Rate (P. putida KT2440 [1]; run 14: glycolaldehyde 1.5 mM, glyoxal 0 mM): 0.221 h⁻¹
- Growth Rate (P. putida KT2440 [1]; run 15: glycolaldehyde 2 mM, glyoxal 0 mM): 0.218 h⁻¹
- concentration that completely inhibited growth (P. putida KT2440 [2]): 4000 µM
- concentration that inhibits growth (P. putida KT2440 [2]): 3000 µM

Compound: O=C(O)C(=O)CO [hydroxypyruvate]
- maximal velocity as GlxR substrate, fold lower than tartronate semialdehyde [3]: 10 fold

Compound: O=CC(=O)O [glyoxylate]
- increase of biomass yield on acetate (P. putida KT2440 [5]): 22.2±8.2%
- reducing equivalents generated through co-metabolism (P. putida KT2440 [5]): 14.4±0.5 mmol (g CDW)^−1 h^−1

Compound: O=C([O-])C(=O)[O-].[Na+].[Na+] [sodium oxalate]
- concentration not significantly inhibitory to growth (P. putida KT2440 [2]): up to 50 mM
